Holding throughout (type): in vitro ADME
One series has as its target T1, UGT1A9 (Homo sapiens, UniProt O60656).
T1 construct: purchased BD Gentest Corp. (Woburn, MA, USA); host or cells: baculovirus-infected insect cells
T1 sequence (O60656 26-530): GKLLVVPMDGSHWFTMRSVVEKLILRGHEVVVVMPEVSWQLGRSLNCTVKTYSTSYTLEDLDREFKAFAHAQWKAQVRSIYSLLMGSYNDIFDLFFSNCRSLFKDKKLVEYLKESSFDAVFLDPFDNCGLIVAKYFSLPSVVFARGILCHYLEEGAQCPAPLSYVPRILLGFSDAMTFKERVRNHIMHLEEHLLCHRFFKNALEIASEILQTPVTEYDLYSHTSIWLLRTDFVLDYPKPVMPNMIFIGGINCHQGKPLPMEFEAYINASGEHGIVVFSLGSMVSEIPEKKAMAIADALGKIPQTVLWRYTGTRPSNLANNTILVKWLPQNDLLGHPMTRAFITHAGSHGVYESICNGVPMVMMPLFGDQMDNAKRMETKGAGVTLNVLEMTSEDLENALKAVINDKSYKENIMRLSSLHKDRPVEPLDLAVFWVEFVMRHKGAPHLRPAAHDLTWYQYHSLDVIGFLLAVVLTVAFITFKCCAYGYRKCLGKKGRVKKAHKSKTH
In words: Recombinant UGT1A9-catalyzed 4-MU glucuronidation inhibition. The settings on record: pH 7.4, probe 4-methylumbelliferone (4-MU), UGT1A9, 100 μM of compound, 4-MU substrate, read-out: residual activity. From the text:
(§1) 4-Methylumbelliferone (4-MU), 4-methylumbelliferone-β-D-glucuronide (4-MUG), Tris-HCl, 7-hydroxycoumarin, and uridine-5′-diphosphoglucuronic acid (UDPGA) (trisodium salt) were purchased from Sigma-Aldrich (St. Louis, MO). Recombinant human UGT isoforms (UGT1A1, UGT1A3, UGT1A4, UGT1A6, UGT1A7, UGT1A8, UGT1A9, UGT1A10, UGT2B4, UGT2B7, and UGT2B15) expressed in baculovirus-infected insect cells were obtained from BD Gentest Corp. (Woburn, MA, USA). Ophiopogonin D (OD), ophiopogonin D′ (OD′), methylophiopogonanone A (MA), methylophiopogonanone B (MB), and ruscorectal (RU) were purchased from Sichuan Weikeqi Biotechnology Company (Chengdu, Sichuan, China). The purity of these compounds was above 95%. All other reagents were of HPLC grade or of the highest grade commercially available.
(§2) 4-MU, the nonspecific probe substrate for all the UGT isoforms except UGT1A4, was used in the present study to initially screen the inhibition potential of maidong's components towards UGT isoforms as previously reported. In brief, the incubation system (total volume = 200 μL) consisted of recombinant UGTs, 5 mM UDPGA, 5 mM MgCl2, 50 mM Tris-HCl (pH = 7.4), and 4-MU in the absence or presence of different concentrations of maidong's components. The compounds were dissolved in DMSO, and the final concentration of DMSO was below 0.5% (v/v). The used incubation time and protein concentration were previously determined to ensure the reaction rate within the linear range. The 4-MU concentration was equal to known K m or S 50 values for each UGT isoform. After 5 min preincubation at 37°C, the incubation reaction was initiated via adding UDPGA to the mixture system. The reactions were quenched by adding 100 μL acetonitrile with 7-hydroxycoumarin (100 μM) as internal standard. Centrifuged at 20000 ×g for 10 min, an aliquot of supernatant was transferred to an autoinjector vial for HPLC analysis. The HPLC system (Shimadzu, Kyoto, Japan) contained a SCL-10A system controller, two LC-10AT pumps, a SIL-10A autoinjector, and a SPD-10AVP UV detector. Chromatographic separation was carried out using a C18 column (4.6 × 200 mm, 5 μm, Kromasil) at a flow rate of 1 mL/min and UV detector at 316 nm. The mobile phase consisted of acetonitrile (A) and H2O containing 0.5% (v/v) formic acid (B). The following gradient condition was used: 0–15 min, 95–40% B; 15–20 min, 10% B; 20–30 min, 95% B.

Another series deals with T2, UGT2B7 (Homo sapiens, UniProt P16662).
T2 construct: purchased BD Gentest Corp. (Woburn, MA, USA); host or cells: baculovirus-infected insect cells
T2 sequence (P16662 24-529): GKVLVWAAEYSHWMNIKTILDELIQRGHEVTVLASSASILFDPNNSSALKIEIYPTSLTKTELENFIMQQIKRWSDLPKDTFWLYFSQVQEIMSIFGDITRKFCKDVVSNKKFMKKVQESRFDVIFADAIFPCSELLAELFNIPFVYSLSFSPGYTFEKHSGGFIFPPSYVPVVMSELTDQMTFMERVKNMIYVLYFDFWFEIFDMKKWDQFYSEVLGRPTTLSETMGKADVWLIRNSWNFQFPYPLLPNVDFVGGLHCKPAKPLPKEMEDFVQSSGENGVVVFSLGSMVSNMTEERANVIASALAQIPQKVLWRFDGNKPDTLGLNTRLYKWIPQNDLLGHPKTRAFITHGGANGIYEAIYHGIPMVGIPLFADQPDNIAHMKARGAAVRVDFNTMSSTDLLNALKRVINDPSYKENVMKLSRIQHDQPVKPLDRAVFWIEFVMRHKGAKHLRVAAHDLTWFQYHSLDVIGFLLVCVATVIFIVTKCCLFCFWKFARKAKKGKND
As to the kind of experiment: Recombinant UGT2B7-catalyzed 4-MU glucuronidation inhibition. The note with it: pH 7.4, probe 4-methylumbelliferone (4-MU), UGT2B7, 100 μM of compound, 4-MU substrate, read-out: residual activity.
Description: as §1, §2

In a further series the target is T3, UGT1A6 (Homo sapiens, UniProt P19224).
T3 construct: purchased BD Gentest Corp. (Woburn, MA, USA); host or cells: baculovirus-infected insect cells
T3 sequence (P19224 27-532): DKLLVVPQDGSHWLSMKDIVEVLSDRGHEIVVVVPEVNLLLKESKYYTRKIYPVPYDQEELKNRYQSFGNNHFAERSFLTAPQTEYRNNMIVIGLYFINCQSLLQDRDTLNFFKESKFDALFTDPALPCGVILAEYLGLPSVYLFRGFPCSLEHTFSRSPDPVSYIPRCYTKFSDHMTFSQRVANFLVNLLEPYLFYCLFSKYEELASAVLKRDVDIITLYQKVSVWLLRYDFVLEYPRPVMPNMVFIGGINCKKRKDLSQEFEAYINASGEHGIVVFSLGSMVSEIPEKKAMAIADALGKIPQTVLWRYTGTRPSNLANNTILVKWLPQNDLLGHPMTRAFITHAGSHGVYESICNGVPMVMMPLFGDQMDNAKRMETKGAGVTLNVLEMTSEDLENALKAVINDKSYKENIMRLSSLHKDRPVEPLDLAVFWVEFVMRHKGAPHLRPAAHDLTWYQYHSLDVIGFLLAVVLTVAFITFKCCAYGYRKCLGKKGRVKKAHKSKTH
As to the kind of experiment: Recombinant UGT1A6-catalyzed 4-MU glucuronidation inhibition. The settings on record: for activity at 100 µM / inhibition at 100 µM: human, pH 7.4, probe 4-methylumbelliferone (4-MU); for activity at 100 µM: UGT1A6, 100 μM of compound, 4-MU substrate, read-out: residual activity; for inhibition type: UGT1A6, Dixon and Lineweaver-Burk plots; for inhibition at 100 µM: UGT1A6, at 100 μM, read-out: inhibition percent.
Description: as §1, §2
To determine the inhibition kinetic type and parameters (K i), the reaction velocity (V) was determined at multiple concentrations of maidong's components and 4-MU (or TFP). Dixon plot and Lineweaver-Burk plot were used to fit the data. The inhibition kinetic type was evaluated through determining the intersection point in the Dixon and Lineweaver-Burk plots.
K m value is the substrate concentration in which the velocity reached half of the maximum velocity (V max) of the reaction. K i value is the inhibition constant.

Read-outs that look alike come from different tables or passages of the source.

As to `Cc1c(O)c(C)c2c(c1O)C(=O)[C@H](Cc1ccc3c(c1)OCO3)CO2` [MA, methylophiopogonanone A], the activity at 100 µM on UGT1A9 was 38.7%; at UGT2B7, 23.3 ± 16.7%; on UGT1A6, 67 ± 1.7%.

Take `COc1ccc(C[C@@H]2COc3c(C)c(O)c(C)c(O)c3C2=O)cc1` [MB, methylophiopogonanone B]: the figures for the activity at 100 µM at UGT1A9, at UGT2B7 and at UGT1A6 were 68.2 ± 1.5%, 82.8 ± 14.5% and 65.3 ± 2%, respectively.

For `C[C@@H]1CC[C@@]2(OC1)O[C@H]1C[C@H]3[C@@H]4CC=C5C[C@@H](O)C[C@@H](O[C@@H]6O[C@H](C)[C@H](O)[C@H](O[C@@H]7OC[C@@H](O)[C@H](O)[C@H]7O)[C@H]6O[C@@H]6O[C@@H](C)[C@H](O)[C@@H](O)[C@H]6O)[C@]5(C)[C@H]4CC[C@]3(C)[C@H]1[C@@H]2C` [OD, ophiopogonin D], the activity at 100 µM at UGT1A9 was 135 ± 1.5%. Besides, at UGT2B7, the activity at 100 µM is 85.4 ± 7.3%. Moreover, on UGT1A6, the Ki was 20.6 µM, the inhibition type result was “noncompetitively inhibited”, the activity at 100 µM is 12.8 ± 3.1% and the inhibition at 100 µM was 87.2%.

As to `C[C@@H]1CC[C@@]2(OC1)O[C@H]1C[C@H]3[C@@H]4CC=C5C[C@@H](O[C@@H]6O[C@H](CO)[C@@H](O)[C@H](O[C@@H]7OC[C@@H](O)[C@H](O)[C@H]7O)[C@H]6O[C@@H]6O[C@@H](C)[C@H](O)[C@@H](O)[C@H]6O)CC[C@]5(C)[C@H]4CC[C@]3(C)[C@H]1[C@@H]2C` [OD′, ophiopogonin D′], the activity at 100 µM on UGT1A9 was found to be 134 ± 2.1%. For the same compound, the activity at 100 µM at UGT2B7 worked out at 77.4 ± 7.1%. Besides, the Ki at UGT1A6 (UGT1A6-catalyzed 4-MU glucuronidation, read-out: inhibition kinetic parameter (Ki)) amounted to 5.3 µM. In addition, at UGT1A6, the inhibition type result is on record as “noncompetitively inhibited”, the activity at 100 µM was 12.1 ± 1.9% and the inhibition at 100 µM was determined as 87.9%.

On to `CC1CCC2(OC1)OC1CC3C4CC=C5CC(O)CC(O)C5(C)C4CCC3(C)C1C2C` (stereo not drawn) [RU, ruscorectal], for which the activity at 100 µM on UGT1A9 was determined as 110.7 ± 1.1%; on UGT2B7 it was 125 ± 59%; at UGT1A6, 65.9 ± 11.6%.

The term Ki denotes the equilibrium dissociation constant of an inhibitor or competing ligand from its target. Broadly, the inhibition is the drop in the measured response relative to a control, in per cent.

(Values after PMC4229968, “The Inhibition of the Components from Shengmai Injection towards UDP-Glucuronosyltransferase” (Evidence-based Complementary and Alternative Medicine : eCAM, 2014).)
